Where “and” joins values, the source holds several entries; their conditions need not be identical. Identical values can stand only once.
Assays:
Test in all cases: KINOMEscan competition binding
Details in all cases: compound 10.0 µM
[1] = target: TNIK (human) (UniProt Q9UKE5)
[2] = target: RIOK3 (human) (UniProt O14730)
[3] = target: MAP3K1 (human) (UniProt Q13233)
[4] = target: PRKD3 (human) (UniProt O94806)
[5] = target: DCLK1 (human) (UniProt O15075)
[6] = target: STK35 (human) (UniProt Q8TDR2)
[7] = target: JAK3 JH1 catalytic (human) (UniProt P52333)
[8] = target: MAP2K2 (human) (UniProt P36507)
[9] = target: TNK1 (human) (UniProt Q13470)
[10] = target: CDK16 (human) (UniProt Q00536)
[11] = target: KDR (human) (UniProt P35968)
[12] = target: TBK1 (human) (UniProt Q9UHD2)
[13] = target: MAPK6 (human) (UniProt Q16659)
[14] = target: ROCK2 (human) (UniProt O75116)
[15] = target: NEK3 (human) (UniProt P51956)
[16] = target: PHKG2 (human) (UniProt P15735)
PHKG2 (human), sequence (P15735 whole entry, looked up): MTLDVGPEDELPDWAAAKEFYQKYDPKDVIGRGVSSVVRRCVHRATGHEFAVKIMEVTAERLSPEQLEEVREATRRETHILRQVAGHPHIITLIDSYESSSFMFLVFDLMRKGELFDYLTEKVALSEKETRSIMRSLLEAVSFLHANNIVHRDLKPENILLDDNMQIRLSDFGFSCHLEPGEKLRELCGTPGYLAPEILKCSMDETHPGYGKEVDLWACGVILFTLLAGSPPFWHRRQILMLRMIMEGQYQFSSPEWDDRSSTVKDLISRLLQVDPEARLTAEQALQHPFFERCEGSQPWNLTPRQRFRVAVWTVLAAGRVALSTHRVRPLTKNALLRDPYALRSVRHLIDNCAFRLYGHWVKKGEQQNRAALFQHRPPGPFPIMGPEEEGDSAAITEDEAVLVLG

[17] = target: PRKD1 (human) (UniProt Q15139)
[18] = target: PKN3 (M.tuberculosis) (UniProt Q6P5Z2)
[19] = target: MAPK14 (human) (UniProt Q16539)
[20] = target: ULK3 (human) (UniProt Q6PHR2)
[21] = target: TYRO3 (human) (UniProt Q06418)
TYRO3 (human), sequence (Q06418 whole entry, looked up): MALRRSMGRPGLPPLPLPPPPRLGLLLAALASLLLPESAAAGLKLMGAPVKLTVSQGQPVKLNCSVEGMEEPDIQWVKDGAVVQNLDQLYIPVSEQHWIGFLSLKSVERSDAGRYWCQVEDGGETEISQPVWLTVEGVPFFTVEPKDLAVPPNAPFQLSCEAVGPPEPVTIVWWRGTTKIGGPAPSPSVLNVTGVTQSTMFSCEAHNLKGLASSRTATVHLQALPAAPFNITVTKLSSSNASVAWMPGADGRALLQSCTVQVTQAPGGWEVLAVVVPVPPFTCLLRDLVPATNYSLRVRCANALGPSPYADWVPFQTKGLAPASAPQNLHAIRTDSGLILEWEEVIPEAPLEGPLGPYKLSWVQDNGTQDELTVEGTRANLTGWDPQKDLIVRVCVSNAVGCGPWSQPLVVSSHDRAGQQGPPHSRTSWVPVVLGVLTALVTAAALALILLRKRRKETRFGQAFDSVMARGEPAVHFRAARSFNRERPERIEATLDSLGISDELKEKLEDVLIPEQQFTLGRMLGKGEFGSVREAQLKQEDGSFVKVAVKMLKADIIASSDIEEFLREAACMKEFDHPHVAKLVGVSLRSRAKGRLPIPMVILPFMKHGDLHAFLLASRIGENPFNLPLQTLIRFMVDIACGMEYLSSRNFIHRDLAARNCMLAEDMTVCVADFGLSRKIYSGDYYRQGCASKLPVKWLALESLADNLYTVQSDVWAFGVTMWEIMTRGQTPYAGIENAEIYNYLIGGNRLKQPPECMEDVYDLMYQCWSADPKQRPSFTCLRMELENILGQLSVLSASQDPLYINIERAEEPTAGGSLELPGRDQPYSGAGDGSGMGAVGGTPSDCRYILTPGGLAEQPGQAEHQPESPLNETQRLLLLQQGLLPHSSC

[22] = target: STK11 (human) (UniProt Q15831)
STK11 (human), sequence (Q15831 whole entry, looked up): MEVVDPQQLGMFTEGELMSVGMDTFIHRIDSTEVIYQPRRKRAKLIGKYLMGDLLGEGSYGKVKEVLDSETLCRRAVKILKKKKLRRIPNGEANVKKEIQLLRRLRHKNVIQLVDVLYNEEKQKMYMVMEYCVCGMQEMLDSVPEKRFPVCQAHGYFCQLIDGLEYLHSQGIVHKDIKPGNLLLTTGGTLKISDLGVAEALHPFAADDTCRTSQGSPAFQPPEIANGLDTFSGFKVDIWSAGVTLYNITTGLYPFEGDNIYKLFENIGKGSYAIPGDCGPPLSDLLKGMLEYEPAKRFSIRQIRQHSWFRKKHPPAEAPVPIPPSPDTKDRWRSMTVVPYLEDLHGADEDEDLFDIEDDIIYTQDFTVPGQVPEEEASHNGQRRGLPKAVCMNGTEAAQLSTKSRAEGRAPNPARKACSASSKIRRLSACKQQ

[23] = target: STK38L (human) (UniProt Q9Y2H1)
STK38L (human), sequence (Q9Y2H1 whole entry, looked up): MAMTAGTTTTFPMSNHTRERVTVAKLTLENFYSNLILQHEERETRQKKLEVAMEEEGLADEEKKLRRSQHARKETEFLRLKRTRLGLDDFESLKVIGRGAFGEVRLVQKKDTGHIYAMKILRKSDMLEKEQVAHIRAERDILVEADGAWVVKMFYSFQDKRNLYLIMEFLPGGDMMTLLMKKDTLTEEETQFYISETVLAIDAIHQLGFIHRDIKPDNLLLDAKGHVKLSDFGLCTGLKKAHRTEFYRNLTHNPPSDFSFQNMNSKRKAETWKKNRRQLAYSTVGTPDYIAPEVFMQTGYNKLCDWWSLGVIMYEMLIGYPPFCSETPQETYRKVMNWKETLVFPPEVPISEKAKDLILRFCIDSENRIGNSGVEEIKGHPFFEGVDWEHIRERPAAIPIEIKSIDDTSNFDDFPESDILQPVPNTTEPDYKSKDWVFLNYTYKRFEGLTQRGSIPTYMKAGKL

[24] = target: ACVR1B (human) (UniProt P36896)
ACVR1B (human), sequence (P36896 whole entry, looked up): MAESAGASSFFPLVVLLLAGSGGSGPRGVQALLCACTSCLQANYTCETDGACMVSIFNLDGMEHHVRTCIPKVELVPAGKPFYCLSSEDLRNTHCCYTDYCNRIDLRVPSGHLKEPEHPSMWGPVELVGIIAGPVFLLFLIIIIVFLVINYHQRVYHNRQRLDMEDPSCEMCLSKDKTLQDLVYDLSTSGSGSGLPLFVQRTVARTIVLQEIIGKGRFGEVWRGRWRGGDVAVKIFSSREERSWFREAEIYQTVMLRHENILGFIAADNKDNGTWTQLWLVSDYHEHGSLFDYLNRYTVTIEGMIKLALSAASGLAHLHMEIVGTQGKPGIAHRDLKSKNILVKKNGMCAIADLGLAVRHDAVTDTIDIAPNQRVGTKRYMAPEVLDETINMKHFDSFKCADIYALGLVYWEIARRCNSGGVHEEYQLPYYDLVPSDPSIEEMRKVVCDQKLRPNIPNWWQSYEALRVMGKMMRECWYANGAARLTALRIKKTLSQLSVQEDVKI

[25] = target: PRPF4B (human) (UniProt Q13523)
[26] = target: DSTYK (human) (UniProt Q6XUX3)
[27] = target: FLT3 (human) (UniProt P36888)
[28] = target: MAP2K3 (human) (UniProt P46734)
[29] = target: PIM1 (human) (UniProt P11309)
[30] = target: MAP4K1 (human) (UniProt Q92918)
[31] = target: STK10 (human) (UniProt O94804)
[32] = target: YES1 (human) (UniProt P07947)
[33] = target: EPHB2 (human) (UniProt P29323)
EPHB2 (human), sequence (P29323 whole entry, looked up): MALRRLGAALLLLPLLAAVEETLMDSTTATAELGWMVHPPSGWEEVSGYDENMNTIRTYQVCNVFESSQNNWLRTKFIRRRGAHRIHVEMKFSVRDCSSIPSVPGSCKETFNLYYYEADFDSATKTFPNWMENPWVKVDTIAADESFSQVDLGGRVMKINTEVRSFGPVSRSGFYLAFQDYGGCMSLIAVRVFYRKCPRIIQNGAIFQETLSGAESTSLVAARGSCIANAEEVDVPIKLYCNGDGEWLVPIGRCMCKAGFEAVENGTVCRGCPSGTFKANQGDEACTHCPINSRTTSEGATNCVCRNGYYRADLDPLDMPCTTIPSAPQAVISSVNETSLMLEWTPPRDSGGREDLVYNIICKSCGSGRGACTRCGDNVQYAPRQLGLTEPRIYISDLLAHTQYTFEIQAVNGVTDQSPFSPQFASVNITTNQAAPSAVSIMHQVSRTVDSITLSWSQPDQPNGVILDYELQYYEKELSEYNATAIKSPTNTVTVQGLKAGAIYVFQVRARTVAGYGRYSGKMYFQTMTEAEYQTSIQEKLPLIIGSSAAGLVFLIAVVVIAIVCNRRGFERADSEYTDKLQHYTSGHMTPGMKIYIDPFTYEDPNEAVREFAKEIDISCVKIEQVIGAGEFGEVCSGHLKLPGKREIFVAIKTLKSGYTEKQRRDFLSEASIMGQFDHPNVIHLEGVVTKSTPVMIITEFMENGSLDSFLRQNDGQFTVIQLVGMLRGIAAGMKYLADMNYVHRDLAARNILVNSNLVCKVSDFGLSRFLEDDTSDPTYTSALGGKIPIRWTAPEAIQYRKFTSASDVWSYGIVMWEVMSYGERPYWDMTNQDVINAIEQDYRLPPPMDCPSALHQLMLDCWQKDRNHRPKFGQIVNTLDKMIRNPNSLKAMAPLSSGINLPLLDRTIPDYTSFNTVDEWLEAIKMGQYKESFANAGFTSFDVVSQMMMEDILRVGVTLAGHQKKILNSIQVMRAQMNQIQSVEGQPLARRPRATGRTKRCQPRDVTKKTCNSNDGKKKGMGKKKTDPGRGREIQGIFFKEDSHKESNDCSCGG

[34] = target: MAPKAPK2 (human) (UniProt P49137)
MAPKAPK2 (human), sequence (P49137 whole entry, looked up): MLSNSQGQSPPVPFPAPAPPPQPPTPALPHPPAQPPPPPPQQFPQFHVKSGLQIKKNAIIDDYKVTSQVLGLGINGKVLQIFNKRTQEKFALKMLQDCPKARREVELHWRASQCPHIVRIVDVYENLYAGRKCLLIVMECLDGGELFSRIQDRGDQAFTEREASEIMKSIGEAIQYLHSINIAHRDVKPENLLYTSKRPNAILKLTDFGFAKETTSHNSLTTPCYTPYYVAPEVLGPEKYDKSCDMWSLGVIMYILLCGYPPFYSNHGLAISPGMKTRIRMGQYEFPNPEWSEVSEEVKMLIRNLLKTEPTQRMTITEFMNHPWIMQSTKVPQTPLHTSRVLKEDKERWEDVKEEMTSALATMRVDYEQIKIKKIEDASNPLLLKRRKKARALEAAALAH

[35] = target: OXSR1 (human) (UniProt O95747)
[36] = target: FES (human) (UniProt P07332)
[37] = target: IKBKB (human) (UniProt O14920)
[38] = target: CDC2L2 (human) (UniProt Q9UQ88)
[39] = target: ZAP70 (human) (UniProt P43403)
ZAP70 (human), sequence (P43403 whole entry, looked up): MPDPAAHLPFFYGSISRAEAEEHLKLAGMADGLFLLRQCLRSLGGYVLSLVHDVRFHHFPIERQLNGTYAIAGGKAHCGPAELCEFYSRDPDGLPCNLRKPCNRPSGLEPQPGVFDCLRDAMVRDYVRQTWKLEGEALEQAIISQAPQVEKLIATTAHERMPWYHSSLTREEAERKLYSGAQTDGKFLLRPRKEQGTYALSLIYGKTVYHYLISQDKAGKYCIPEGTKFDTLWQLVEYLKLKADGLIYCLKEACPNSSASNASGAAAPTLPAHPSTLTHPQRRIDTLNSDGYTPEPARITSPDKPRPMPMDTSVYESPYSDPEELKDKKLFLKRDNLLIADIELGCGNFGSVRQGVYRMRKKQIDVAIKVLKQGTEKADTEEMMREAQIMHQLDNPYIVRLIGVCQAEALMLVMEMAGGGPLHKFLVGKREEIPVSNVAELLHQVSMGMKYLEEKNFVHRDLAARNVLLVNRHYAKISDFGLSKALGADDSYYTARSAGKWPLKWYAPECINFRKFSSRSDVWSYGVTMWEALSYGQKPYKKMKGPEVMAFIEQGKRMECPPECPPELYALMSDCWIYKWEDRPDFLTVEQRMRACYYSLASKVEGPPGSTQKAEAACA

[40] = system: PIK3CA (human), P42336 [H1047Y]

Row | SMILES | kinase still bound, per cent of control [1] [%] | kinase still bound, per cent of control [2] [%] | kinase still bound, per cent of control [3] [%] | kinase still bound, per cent of control [4] [%] | kinase still bound, per cent of control [5] [%] | kinase still bound, per cent of control [6] [%] | kinase still bound, per cent of control [7] [%] | kinase still bound, per cent of control [8] [%] | kinase still bound, per cent of control [9] [%] | kinase still bound, per cent of control [11] [%] | kinase still bound, per cent of control [12] [%] | kinase still bound, per cent of control [13] [%] | kinase still bound, per cent of control [14] [%] | kinase still bound, per cent of control [15] [%] | kinase still bound, per cent of control [16] [%] | kinase still bound, per cent of control [17] [%] | kinase still bound, per cent of control [18] [%] | kinase still bound, per cent of control [19] [%] | kinase still bound, per cent of control [20] [%] | kinase still bound, per cent of control [21] [%] | further results
1 | Cc1cc([C@@H](C)Nc2ccccc2C(=O)O)c2nc(N3CCOCC3)cc(=O)n2c1 | 98 | 100 | 90 | 100 | 78 | 95 | 94 | 100 | 100 | 100 | 100 | 100 | 91 | 100 | 100 | 89 | 98 | 97 | 98 | 100 | kinase still bound, per cent of control [10]: 100%; kinase still bound, per cent of control [22]: 98%; kinase still bound, per cent of control [23]: 94%; kinase still bound, per cent of control [24]: 93%; kinase still bound, per cent of control [25]: 71%; kinase still bound, per cent of control [26]: 100%; kinase still bound, per cent of control [27]: 13%; kinase still bound, per cent of control [28]: 100%; kinase still bound, per cent of control [29]: 100%; kinase still bound, per cent of control [30]: 100%; kinase still bound, per cent of control [31]: 100%; kinase still bound, per cent of control [32]: 100%; kinase still bound, per cent of control [33]: 100%; kinase still bound, per cent of control [34]: 66%; kinase still bound, per cent of control [35]: 100%; kinase still bound, per cent of control [36]: 94%; kinase still bound, per cent of control [37]: 90%; kinase still bound, per cent of control [38]: 100%; kinase still bound, per cent of control [39]: 100%
2 | CCC(=O)N1CCN(c2ccc(-n3c(=O)ccc4cnc5ccc(-c6cnc7ccccc7c6)cc5c43)cc2C(F)(F)F)CC1 | 39 | 90 | 92 | 100 | 100 | 18 | 100 | 100 | 6.8 | 65 | 93 | 1.8 | 50 | 100 | 100 | 99 | 64 | 90 | 100 | 31 | kinase still bound, per cent of control [10]: 91%; kinase still bound, per cent of control [22]: 100%; kinase still bound, per cent of control [23]: 94%; kinase still bound, per cent of control [24]: 45%; kinase still bound, per cent of control [25]: 100%; kinase still bound, per cent of control [26]: 28%; kinase still bound, per cent of control [27]: 16%; kinase still bound, per cent of control [28]: 80%; kinase still bound, per cent of control [29]: 80%; kinase still bound, per cent of control [30]: 30%; kinase still bound, per cent of control [31]: 79%; kinase still bound, per cent of control [32]: 74%; kinase still bound, per cent of control [33]: 100%; kinase still bound, per cent of control [34]: 100%; kinase still bound, per cent of control [35]: 100%; kinase still bound, per cent of control [36]: 41%; kinase still bound, per cent of control [37]: 61%; kinase still bound, per cent of control [38]: 100%; kinase still bound, per cent of control [39]: 100%
3 | O=C(NOC[C@H](O)CO)c1ccc(F)c(F)c1Nc1ccc(I)cc1F | 100 | 100 | 54 | 70 | 100 | 83 | 100 | 0.2 | 68 | 84 | 85 | 83 | 100 | 100 | 93 | 100 | 91 | 100 | 89 | 80 | kinase still bound, per cent of control [10]: 100%; kinase still bound, per cent of control [22]: 83%; kinase still bound, per cent of control [23]: 100%; kinase still bound, per cent of control [24]: 100%; kinase still bound, per cent of control [25]: 77%; kinase still bound, per cent of control [26]: 100%; kinase still bound, per cent of control [27]: 82% and 80%; kinase still bound, per cent of control [28]: 89%; kinase still bound, per cent of control [29]: 100%; kinase still bound, per cent of control [30]: 77%; kinase still bound, per cent of control [32]: 73%; kinase still bound, per cent of control [33]: 73%; kinase still bound, per cent of control [34]: 84%; kinase still bound, per cent of control [40]: 57%; kinase still bound, per cent of control [35]: 100%; kinase still bound, per cent of control [36]: 100%; kinase still bound, per cent of control [37]: 79%; kinase still bound, per cent of control [38]: 100%; kinase still bound, per cent of control [39]: 89%
4 | Cc1ccc2nc(NCCN)c3ncc(C)n3c2c1 | 100 | 100 | 74 | 41 | 84 | 90 | 100 | 77 | 100 | 100 | 100 | 27 | 100 | 100 | 79 | 47 | 0 | 98 | 76 | 100 | kinase still bound, per cent of control [23]: 100%; kinase still bound, per cent of control [24]: 97%; kinase still bound, per cent of control [25]: 66%; kinase still bound, per cent of control [26]: 100%; kinase still bound, per cent of control [27]: 100%; kinase still bound, per cent of control [28]: 95%; kinase still bound, per cent of control [29]: 100%; kinase still bound, per cent of control [30]: 81%; kinase still bound, per cent of control [31]: 100%; kinase still bound, per cent of control [32]: 100%; kinase still bound, per cent of control [33]: 100%; kinase still bound, per cent of control [34]: 100%; kinase still bound, per cent of control [40]: 26%; kinase still bound, per cent of control [35]: 100%; kinase still bound, per cent of control [36]: 100%; kinase still bound, per cent of control [37]: 0.55%; kinase still bound, per cent of control [38]: 1%; kinase still bound, per cent of control [39]: 100%
